Literature values as cited in patent US9669048B2, “Stable pharmaceutical composition of 5-aza-2′-deoxycitidine” (Fresenius Kabi Oncology Limited, priority 2012, dated 2017).

Conditions: reconstituted/diluted solution

- Stability in aqueous media: highly unstable
Compound: Nc1ncn([C@H]2CC(O)[C@@H](CO)O2)c(=O)n1 (stereo partly shown) [Decitabine, 5-aza-2′-deoxycitidine]
